Laboratory results reported in patent US8420777B2, “Compounds that inhibit Hsp90 protein-protein interactions with IAP proteins” (University of Massachusetts, priority 2004, dated 2013).
Square brackets hold non-standard residues; d marks the D form. Ends that are not written are not given here.

Experiments:
[1] = test system: normal lung fibroblast LU18 cells; experiment: Trypan blue exclusion in normal cells; format: cell-based; settings: 150 μM, 24 hours
PC3 tumors = experiment: Peptide accumulation within the tumor mass, fluorescence microscopy; format: in vivo, SCID/beige mice; settings: intraperitoneally, one hour after administration
Experimental: To determine whether the survivin peptidomimetic accumulates intracellularly in vivo, animals carrying flank PC3 tumors were injected intraperitoneally with saline, or the cell-permeable retro-inverso K79-L87 survivin peptide P3. One hour after administration, the animals were sacrificed, and the tumors were carefully excised and analyzed for peptide accumulation within the tumor mass by fluorescence microscopy.

[2] = test system: HCT116, HeLa, MCF-7, PANC-1, PC3 tumor cells; experiment: Trypan blue exclusion in tumor cell lines; format: cell-based; settings: 150 μM, 24 hours
Experimental: To study the specificity of the retro-inverso P3 and P4 sequences described in Example 17, we incubated a variety of tumor cell lines with the cell permeable retro-inverso P3 and P4 peptides (150 μM), and stained the cultures after 24 hours by trypan blue (Sigma) exclusion. Cells that fail to exclude the blue dye were cells that lost cell viability and plasma membrane integrity.

[3] = test system: HeLa, MDA-MB231, MCF-7, PANC-1 tumor cell lines; experiment: MTT cell viability with retro-inverso peptides; format: cell-based; settings: increasing concentrations, 24 hours
Experimental: For determination of apoptosis by hypodiploid DNA content, various tumor cell lines were incubated with increasing concentrations of the cell permeable control scrambled (SEQ ID NO:25) or Survivin peptide (SEQ ID NO:19), harvested after 24 hours (floaters plus attached cells) fixed in 70% ethanol, and stained with 10 μg/ml propidium iodide plus 100 μg/ml RNAse A and 0.05% Triton™ X-100 in PBS, pH 7.4. Cultures were analyzed for DNA content by flow cytometry. For colorimetric quantification of cell viability, an MTT assay was used. […] Decrease in cell viability was analyzed for loss of colorimetric absorption at OD405.
To increase the stability in vivo of the cell permeable Survivin K79-L87 sequence, we synthesized peptidomimetic variants in which the cell penetrating Antennapedia sequence and the Survivin active sequence K79-L87 were synthesized using D-amino acid ([…]) and in the reverse order (inverso sequence). […] To test the ability of the retro-inverso cell permeable sequences to induce apoptosis in cancer cells, a panel of tumor cell lines were analyzed by the cell viability MTT assay after incubation with the indicated increasing concentrations of the P3 (Survivin) or P4 (control) retro-inverso cell permeable peptides.

Hsp 27 = target: T1, Hsp 27 (Homo sapiens, UniProt P04792); experiment: Affinity chromatography of Raji cell extracts on Survivin peptide column; format: binding
T1 construct: used to fractionate Raji cell extracts; endogenous in cells; host or cells: Raji B lymphoma cells
Description: (§1) A Survivin Ile^74-Leu^87 peptide (SEQ ID NO:4) containing a binding site for Hsp90 was immobilized onto a Sulfolink™ Coupling Gel (Pierce, Rockport, Ill.), and used to fractionate Raji cell extracts. Proteins were identified in the flow trough (FT) or eluate (E) by Western blotting with the indicated antibodies. Hsp90 and Hsp70 clearly bound the Survivin peptide including residues Ile^74-Leu^87. The anti-Hsp70 antibodies were obtained from Abcam, Cambridge, Mass. (cat. No. ab6535).

Hsp90 = experiment: as above; format: binding; settings: eluate by Western blotting
Description: as §1

Hsp70 = experiment: as above; format: binding; settings: eluate by Western blotting
Description: as §1

T1 sequence (P04792 whole entry): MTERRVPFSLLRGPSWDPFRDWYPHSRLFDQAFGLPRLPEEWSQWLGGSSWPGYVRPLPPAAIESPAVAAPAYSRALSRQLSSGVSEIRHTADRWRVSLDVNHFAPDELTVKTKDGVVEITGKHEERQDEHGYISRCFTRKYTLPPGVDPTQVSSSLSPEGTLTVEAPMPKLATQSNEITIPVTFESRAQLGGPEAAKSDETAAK

In the case of `CSCC[C@@H](NC(=O)[C@@H](CCCCN)NC(=O)[C@@H](Cc1c[nH]c2ccccc12)NC(=O)[C@@H](CCCCN)NC(=O)[C@@H](CCCCN)NC(=O)CCCCCNC(=O)CCCC[C@@H]1SC[C@@H]2NC(=O)N[C@@H]21)C(=O)N[C@H](CCCNC(=N)N)C(=O)N[C@H](CCCNC(=N)N)C(=O)N[C@H](CC(N)=O)C(=O)N[C@H](CCC(N)=O)C(=O)N[C@H](Cc1ccccc1)C(=O)N[C@H](Cc1c[nH]c2ccccc12)C(=O)N[C@@H](C(=O)N[C@H](CCCCN)C(=O)N[C@@H](C(=O)N[C@H](CCC(N)=O)C(=O)N[C@H](CCCNC(=N)N)C(=O)N[C@H](CC(C)C)C(=O)N[C@H](Cc1ccccc1)C(=O)N[C@H](C)C(=O)N[C@H](CS)C(=O)NCC(=O)N[C@H](CO)C(=O)N[C@H](CO)C(=O)N[C@H](Cc1c[nH]cn1)C(=O)N[C@H](CCCCN)C(N)=O)C(C)C)C(C)C` [P3], the “viability of normal cells (trypan blue exclusion)” value [1] is reported as “neither the Survivin P3 nor the control P4 peptide resulted in decreased viability” and the “intracellular accumulation in tumor cells” value (PC3 tumors) is reported as “showed intracellular fluorescence”.

For “KKWKMRRNQFWVIWQRGHSFCALKS-CONH2 ([dK][dK][dW][dK][dM][dR][dR][dN][dQ][dF][dW][dV][dI][dW][dQ][dR]G[dH][dS][dF][dC][dA][dL][dK][dS]-NH2; also: retro-inverso) [P4, retro-inverso control scrambled peptide]”, the “tumor cell viability (trypan blue exclusion)” value [2] was “did not reduce tumor cell viability” and the “cell viability (MTT)” value [3] was “no decrease in cell viability”.

For IDDHKKHSSGCAFL [SEQ ID NO:4], the “Hsp 27 binding to peptide column” value (Hsp 27) was “did not bind”, the “Hsp90 binding to peptide column” value (Hsp90) was “clearly bound” and the “Hsp70 binding to peptide column” value (Hsp70) was “clearly bound”.
